Measured values taken from EP4341264B1, “PYRROLOPIRIMIDINE DERIVATIVES AND THEIR USE IN THE TREATMENT OF LEISHMANIASIS” (Drugs for Neglected Diseases Initiative, priority 2021, dated 2022).
Where two headings read alike, the source gives them in different places.

Key:
MRC-5SV2 cells = conditions: printed in SI column; data from IJP: Drugs and Drug Resistance, 2018, 8, 81-86; cited from earlier work
L. infantum = test: VL hamster model in vivo efficacy (reduction of parasite load vs. control); conditions: 40 mg/kg qd, 5 days
Experimental: The in vivo efficacy of the compounds C1, C3, C4, and miltefosine was evaluated in a VL hamster model infected with L. infantum. The in vivo studies were performed in accordance with the methods described by Van den Kerkhof et al. [IJP: Drugs and Drug Resistance, 2018, 8, Issue 1, 81-86]. Following treatment, the reduction of parasite load vs. control was determined in different body compartments (liver, spleen, and bone marrow) with results presented in Table 4. Table 4. Hamster in vivo efficacy

[1] = tested on: L. infantum (MHOM/MA/67/ITMAP263); conditions: cited from earlier work
[2] = tested on: L. donovani (MHOM/NP/03/BPK275/0-cl18); test: Leishmania clinical isolate panel screen (drug-susceptibility assay in infected macrophages); assay type: cell-based; conditions: Macrophage, Visceral leishmaniasis, L. donovani (MHOM/NP/03/BPK275/0-cl18), Miltefosine: mean only, read-out: IC50 Mean ± SEM
Experimental: (§1) Female Swiss mice (BW ~20 g) were purchased from a commercial source (Janvier France) and kept in quarantine for 1 week. The animals were housed in group and drinking water was available ad libitum. To harvest peritoneal macrophages, the mice were first stimulated by intraperitoneal injection of 1 mL of starch solution (2% in PBS). After 24 h, macrophages were collected in RPMI-1640 supplemented with 5% iFCS, 2% penicillin-streptomycin and 1% L-glutamine by peritoneal lavage and immediately distributed in a 96-well plate at a concentration of 30,000 cells/well. The cells were incubated for 24 h at 37°C and 5 % CO2 to allow cell attachment.
(§2) Strains of L. donovani, L. infantum, L. major, L. tropica, L. guyanensis and L. panamensis were selected based on their intrinsic susceptibility to the commonly used reference drugs and their geographic distribution. All strains were cultivated in HOMEM promastigote medium and sub-cultured twice weekly. Passage numbers were kept as low as possible to avoid loss of virulence. For infection of the macrophages, metacyclic promastigote cultures were examined light microscopically for the abundant presence of metacyclic promastigotes. Upon counting, promastigotes were centrifuged and diluted in RPMI-1640 to the desired concentration. The infection ratio varied based on the ability of the strain to adequately infect the host cells and ranged from 5 to 20 promastigotes per macrophage. Macrophages were infected by adding 100 µL promastigote suspension per well onto the macrophages. When ex vivo amastigotes were available (only for two lab strains), macrophages were infected at a ratio of 10/1.
(§3) Stock solutions of the DNDi lead compounds were prepared in 100% DMSO at 20 mM and robotically further diluted in water. Miltefosine (MIL) was included as reference and formulated in water at a concentration of 20 mM. The medium was discarded from the plates to remove any residual non-internalized promastigotes and replaced by fresh RPMI-1640 medium supplemented with iFBS, P/S and L-glutamine (as described above). Next, a 2-fold dilution series of each lead compound was added to the plate with 64 µM as the highest in test-concentration for the DNDi leads and 40 µM for MIL. The 96-well plates were further incubated at 34-37°C and 5% CO2. For staining, the culture medium was discarded, and the plates were left to dry for 2-4 hours. The cells were then fixated with methanol for 10 minutes and stained with a 1/5 Giemsa dilution in water for 15 minutes. The percentage infection-inhibition compared to a positive control (untreated infected macrophages) was microscopically determined and used to calculate the IC50 and IC90 values.

[3] = tested on: L. infantum (LEM3323-cl4 MIL); test: as above; assay type: cell-based; conditions: Macrophage, read-out: IC50 Mean ± SEM
Experimental: as §1, §2, §3

[4] = tested on: L. guyanensis (MHOM/PE/02/PER 054/0); test: as above; assay type: cell-based; conditions: Macrophage, Cutaneous leishmaniasis, L. guyanensis (MHOM/PE/02/PER 054/0), Miltefosine: mean only, read-out: IC50 Mean ± SEM
Experimental: as §1, §2, §3

[5] = tested on: L. tropica (MHOM/AF/2015/HTD7); test: as above; assay type: cell-based; conditions: Macrophage, Cutaneous leishmaniasis, L. tropica (MHOM/AF/2015/HTD7), Miltefosine: mean only, read-out: IC50 Mean ± SEM
Experimental: as §1, §2, §3

[6] = tested on: L. panamensis (MHOM/PA/71/LS94); test: as above; assay type: cell-based; conditions: Macrophage, Cutaneous leishmaniasis, L. panamensis (MHOM/PA/71/LS94), Miltefosine: mean only, read-out: IC50 Mean ± SEM
Experimental: as §1, §2, §3

[7] = tested on: L. donovani (MHOM/ NP/2003/BPK282/0-cl4); test: as above; assay type: cell-based; conditions: Macrophage, read-out: IC50 Mean ± SEM
Experimental: as §1, §2, §3

[8] = tested on: L. infantum (MHOM/BR/2007/WC (L3015)); test: as above; assay type: cell-based; conditions: Macrophage, Visceral leishmaniasis, L. infantum (MHOM/BR/2007/WC (L3015)), Miltefosine: mean only, read-out: IC50 Mean ± SEM
Experimental: as §1, §2, §3

[9] = tested on: L. infantum (MHOM/FR/96/LEM3323-cl4); test: as above; assay type: cell-based; conditions: Macrophage, Visceral leishmaniasis, L. infantum (MHOM/FR/96/LEM3323-cl4), Miltefosine: mean only, read-out: IC50 Mean ± SEM
Experimental: as §1, §2, §3

[10] = tested on: L. major (MHOM/SA/85/JISH118); test: as above; assay type: cell-based; conditions: Macrophage, Cutaneous leishmaniasis, L. major (MHOM/SA/85/JISH118), Miltefosine: mean only, read-out: IC50 Mean ± SEM
Experimental: as §1, §2, §3

[11] = tested on: L. infantum (MHOM/ES/2016/LLM-2346); test: as above; assay type: cell-based; conditions: Macrophage, Visceral leishmaniasis, L. infantum (MHOM/ES/2016/LLM-2346), Miltefosine: mean only, read-out: IC50 Mean ± SEM
Experimental: as §1, §2, §3

[12] = tested on: L. major (MHOM/IL/81/Friedlin); test: as above; assay type: cell-based; conditions: Macrophage, Cutaneous leishmaniasis, L. major (MHOM/IL/81/Friedlin), Miltefosine: mean only, read-out: IC50 Mean ± SEM
Experimental: as §1, §2, §3

[13] = tested on: L. infantum (LEM3323-cl4 PMM); test: as above; assay type: cell-based; conditions: Macrophage, read-out: IC50 Mean ± SEM
Experimental: as §1, §2, §3

[14] = tested on: L. donovani (MHOM/ET/67/L82); conditions: cited from earlier work

CCCCCCCCCCCCCCCCOP(=O)([O-])OCC[N+](C)(C)C [Miltefosine, reference compound]
CC50 (MRC-5SV2 cells): 38500 nM
% Parasite reduction Bone marrow (L. infantum; bone marrow): 92.1-99.0%
% Parasite reduction Liver (L. infantum; liver): 97.0-98.2%
% Parasite reduction Spleen (L. infantum; spleen): 95.7-99.5%
IC50 ([1]; L. infantum infected macrophages, IJP: Drugs and Drug Resistance, 2018, 8, Issue 1, 81-86): 3500 ± 400 nM
IC50 ([1]; L. infantum, data from IJP: Drugs and Drug Resistance, 2018, 8, 81-86): 3500 ± 400 nM
IC50 [2]: 2070 nM
IC50 [3]: 2010 nM
IC50 [4]: 8060 nM
IC50 [5]: 2160 nM
IC50 [6]: 1810 nM
IC50 [7]: 2010 nM
IC50 [8]: 2690 nM
IC50 [9]: 1810 nM
IC50 [10]: 24000 nM
IC50 [11]: 2160 nM
IC50 [12]: 11300 nM
IC50 [13]: 20300 nM
IC50 ([14]; L. donovani infected macrophages, IJP: Drugs and Drug Resistance, 2018, 8, Issue 1, 81-86): 1800 ± 400 nM
IC50 ([14]; L. donovani, data from IJP: Drugs and Drug Resistance, 2018, 8, 81-86): 1800 ± 400 nM
